Experimental data as given in patent publication US6340702B1 (priority 1996, dated 2002).
Values joined by “and” are separate entries in the source; they are usually repeats but may differ in a detail not shown here. Identical values can stand only once. Counter-ions that a name gives are not always drawn. Like-named read-outs stand apart in the source and are kept apart here.

Assays:
[1] = system: Influenza virus strain A/Yamagata/32189(H1N1); test: microbe, parasite or virus in culture; assay type: cell-based
[2] = system: mouse-acclimated influenza virus A/PR/8/34 strain; design: species or system mice (BALB/C); details: in vivo
[3] = system: mouse-acclimated influenza virus A/PR/8/34 strain; design: species or system mice (BALB/C); details: in vivo; remark: listed apart in the source
[4] = target: crude influenza virus sialidase (Influenza A virus, UniProt P03468); details: Table 5; absorbance at 415 nm reduced by 50%, pH 6.5, 37° C., 20 minutes
Sequence of crude influenza virus sialidase (P03468 whole entry, looked up): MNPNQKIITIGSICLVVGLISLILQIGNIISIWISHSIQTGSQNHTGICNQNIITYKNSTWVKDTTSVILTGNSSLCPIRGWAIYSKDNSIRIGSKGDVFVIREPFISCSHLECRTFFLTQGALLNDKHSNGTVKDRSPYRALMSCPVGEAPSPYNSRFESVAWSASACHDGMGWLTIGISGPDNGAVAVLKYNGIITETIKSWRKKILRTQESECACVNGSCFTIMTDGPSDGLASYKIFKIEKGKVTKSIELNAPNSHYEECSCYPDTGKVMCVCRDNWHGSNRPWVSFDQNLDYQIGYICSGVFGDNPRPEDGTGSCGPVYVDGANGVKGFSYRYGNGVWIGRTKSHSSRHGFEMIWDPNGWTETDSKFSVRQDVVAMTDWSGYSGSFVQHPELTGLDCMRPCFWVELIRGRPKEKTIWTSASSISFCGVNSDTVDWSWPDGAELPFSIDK
Protocol: In this experiment, a sample of influenza virus strain A/PR/8/34(H1N1) was dissolved by means of a surfactant, after which the virus membrane fraction was purified by centrifugation.
An enzyme solution was first prepared such that the final enzyme activity was 0.001 1 units/ml (1 unit corresponds to that amount of enzyme which hydrolyzes 1 μmole of substrate in 1 minute). Also prepared beforehand were aqueous solutions of test compound in various concentrations; an aqueous solution of the substrate to a concentration of 33 μg/ml, and a 20 mM 2-(N-morpholino)-ethanesulfonic acid buffer (pH 6.5) containing 50 mM calcium chloride. These solutions were combined to prepare a mixture having a final volume of 150 μl, and which was then left to stand at 37° C. for 20 minutes.

[5] = system: mouse-acclimated influenza virus A/PR/8/34 strain; design: species or system mice (BALB/C); details: in vivo; remark: listed apart in the source

CO[C@@H]([C@@H]1OC(C(=O)O)=C[C@H](N=C(N)N)[C@H]1NC(C)=O)[C@H](O)CO [Example 28, 5-Acetamido-4-guanidino-2,3,4,5,7-pentadeoxy-7-methoxy-D-glycero-D-galacto-non-2-enopyranosoic acid trifluoroacetic acid salt]
IC50 ([1]; read-out: IC50): 1.7 nM

CCCCCCCCCCCCCCOC(=O)C1=CC(NC(=N)N)C(NC(C)=O)[C@H](C(O)C(O)CO)O1.O=C(O)C(F)(F)F (stereo partly drawn) [Example 1′, Myristyl 5-acetamido-2,3,4,5-tetradeoxy-4-guanidino-D-glycero-D-galacto-non-2-enopyranosoate trifluoroacetic acid salt]
influenza infection therapeutic effects compared with Compound A [2]: superior to those of Compound A | number of surviving mice divided by the number of test mice, Day 3 [2]: 5/8 | number of surviving mice divided by the number of test mice, Day 6 [2]: 8/8 | influenza infection therapeutic effects compared with Compound A [3]: superior to those of Compound A | number of surviving mice divided by the number of test mice, Day 8 [3]: 4/12

CCO[C@@H]([C@@H]1OC(C(=O)O)=C[C@H](N=C(N)N)[C@H]1NC(C)=O)[C@H](O)CO [Example 30, 5-Acetamido-4-guanidino-2,3,4,5,7-pentadeoxy-7-ethoxy-D-glycero-D-galacto-non-2-enoic acid trifluoroacetic acid salt]
IC50 ([1]; read-out: IC50): 0.8 nM | IC50 [4]: 7 nM

CCCCCCCCCCCCCC(=O)OCC(O)C(O)[C@@H]1OC(C(=O)O)=CC(NC(=N)N)C1NC(C)=O.O=C(O)C(F)(F)F (stereo partly drawn) [Example 3′, 5-Acetamido-2,3,4,5-tetradeoxy-4-guanidino-9-O-myristoyl-D-glvcero-D-galacto-non-2-enopyranosoic acid trifluoroacetic acid salt]
number of surviving mice divided by the number of test mice, Day 6 [5]: 10/10 | number of surviving mice divided by the number of test mice, Day 8 [5]: 10/10

CCCCCCCCCCCCCCCCCCOC(=O)C1=CC(NC(=N)N)C(NC(C)=O)[C@H](C(O)C(O)CO)O1.O=C(O)C(F)(F)F (stereo partly drawn) [Example 11′, Stearyl 5-acetamido-2,3,4,5-tetradeoxy-4-guanidino-D-glycero-D-galacto-non-2-enopyranosoate trifluoroacetic acid salt]
influenza infection therapeutic effects compared with Compound A [3]: superior to those of Compound A | number of surviving mice divided by the number of test mice, Day 8 [3]: 11/11

CCCCCC(=O)OCC(O)C(O)[C@@H]1OC(C(=O)O)=CC(NC(=N)N)C1NC(C)=O.O=C(O)C(F)(F)F (stereo partly drawn) [Example 4′, 5-Acetamido-2,3,4,5-tetradeoxy-4-guanidino-9-O-hexanoyl-D-glycero-D-galacto-non-2-enopyranosoic acid trifluoroacetic acid salt]
number of surviving mice divided by the number of test mice, Day 6 [5]: 10/10 | number of surviving mice divided by the number of test mice, Day 8 [5]: 6/10

CC(=O)NC1C(NC(=N)N)C=C(C(=O)O)O[C@H]1C(O)C(O)CO (stereo partly drawn) [Compound A, reference compound]
IC50 ([1]; unidentified influenza virus, H1N1, MDCK, 40 h, Table 3, plaque number reduced to 50%, MDCK cells): 4.7 nM | IC50 ([1]; unidentified influenza virus, H1N1, MDCK, 40 h, Table 4, plaque number reduced to 50%, MDCK cells): 11 nM | number of surviving mice divided by the number of test mice, Day 3 [2]: 3/7 | number of surviving mice divided by the number of test mice, Day 10 [2]: dead | number of surviving mice divided by the number of test mice, Day 10 [3]: dead | number of surviving mice divided by the number of test mice, Day 8 [5]: one

CCCCCCCC(=O)OCC(O)C(O)[C@@H]1OC(C(=O)O)=CC(NC(=N)N)C1NC(C)=O.O=C(O)C(F)(F)F (stereo partly drawn) [Example 5′, 5-Acetamido-2,3,4,5-tetradeoxy-4-guanidino-9-O-octanoyl-D-glycero-D-galacto-non-2-enopyranosoic acid trifluoroacetic acid salt]
number of surviving mice divided by the number of test mice, Day 6 [5]: 11/11 | number of surviving mice divided by the number of test mice, Day 8 [5]: 10/11

CCCCCCCCCCCCCCCCCC(=O)OCC(O)C(O)[C@@H]1OC(C(=O)O)=CC(NC(=N)N)C1NC(C)=O.O=C(O)C(F)(F)F (stereo partly drawn) [Example 9′, 5-Acetamido-2,3,4,5-tetradeoxy-4-guanidino-9-O-octadecanoyl-D-glycero-D-galacto-non-2-enopyranosoic acid trifluoroacetic acid salt]
number of surviving mice divided by the number of test mice, Day 6 [5]: 10/10 | number of surviving mice divided by the number of test mice, Day 8 [5]: 4/10

CCCCCCCCCCCC(=O)OCC(O)C(O)[C@@H]1OC(C(=O)O)=CC(NC(=N)N)C1NC(C)=O.O=C(O)C(F)(F)F (stereo partly drawn) [Example 8′, 5-Acetamido-2,3,4,5-tetradeoxy-4-guanidino-9-O-dodecanoyl-D-glycero-D-galacto-non-2-enopyranosoic acid trifluoroacetic acid salt]
number of surviving mice divided by the number of test mice, Day 6 [5]: 11/11 | number of surviving mice divided by the number of test mice, Day 8 [5]: 2/11

CCCCCCOC(=O)C1=CC(NC(=N)N)C(NC(C)=O)[C@H](C(O)C(O)CO)O1.O=C(O)C(F)(F)F (stereo partly drawn) [Example 2′, Hexyl 5-acetamido-2,3,4,5-tetradeoxy-4-guanidino-D-glycero-D-galacto-non-2-enopyranosoate trifluoroacetic acid salt]
influenza infection therapeutic effects compared with Compound A [2]: superior to those of Compound A | number of surviving mice divided by the number of test mice, Day 3 [2]: 2/8 | number of surviving mice divided by the number of test mice, Day 6 [2]: 8/8 | number of surviving mice divided by the number of test mice, Day 10 ([2]; trifluoroacetic acid salt): 1 and 1/8

CCCCCCCCCC(=O)OCC(O)C(O)[C@@H]1OC(C(=O)O)=CC(NC(=N)N)C1NC(C)=O.O=C(O)C(F)(F)F (stereo partly drawn) [Example 6′, 5-Acetamido-2,3,4,5-tetradeoxy-4-guanidino-9-O-decanoyl-D-glycero-D-galacto-non-2-enopyranosoic acid trifluoroacetic acid salt]
number of surviving mice divided by the number of test mice, Day 6 [5]: 11/11 | number of surviving mice divided by the number of test mice, Day 8 [5]: 10/11

CCCCCCCCCCCCCCCC(=O)OCC(O)C(O)[C@@H]1OC(C(=O)O)=CC(NC(=N)N)C1NC(C)=O.O=C(O)C(F)(F)F (stereo partly drawn) [Example 7′, 5-Acetamido-2,3,4,5-tetradeoxy-4-guanidino-9-O-palmitoyl-D-glycero-D-galacto-non-2-enopyranosoic acid trifluoroacetic acid salt]
number of surviving mice divided by the number of test mice, Day 6 [5]: 10/10 | number of surviving mice divided by the number of test mice, Day 8 [5]: 3/10

CCCCCCCCCCCCCCCCOC(=O)C1=CC(NC(=N)N)C(NC(C)=O)[C@H](C(O)C(O)CO)O1.O=C(O)C(F)(F)F (stereo partly drawn) [Example 10′, Cetyl 5-acetamido-2,3,4,5-tetradeoxy-4-guanidino-D-glycero-D-galacto-non-2-enopyranosoate trifluoroacetic acid salt]
influenza infection therapeutic effects compared with Compound A [3]: superior to those of Compound A | number of surviving mice divided by the number of test mice, Day 8 [3]: 10/12
